Laboratory results as given in patent publication US20090075915A1, “6,11-BICYCLOLIDES: BRIDGED BIARYL MACROLIDE DERIVATIVES” (priority 2007, published 2009).
Values after ≈ are worked out from the molar mass of the structure shown.

Experiments:
H influenzae 49247 = experiment: MIC, H influenzae 49247; assay type: cell-based, Haemophilus influenzae; settings: for MIC: Haemophilus influenzae, 49247, Table 5; for H. influenzae 49247 (microbiological data): Table 6, related compounds of US 6878691
Method: (§1) Susceptibility tests can be used to quantitatively measure the in vitro activity of an antimicrobial agent against a given bacterial isolate. Compounds are tested for in vitro antibacterial activity by a micro-dilution method. Minimal Inhibitory Concentration (MIC) is determined in 96 well microtiter plates utilizing the appropriate broth medium for the observed bacterial isolates. Antimicrobial agents are serially diluted (2-fold) in DMSO to produce a concentration range from about 64 μg/ml to about 0.03 μg/ml. The diluted compounds (2 μl/well) are then transferred into sterile, uninoculated medium (0.2 mL) by use of a 96 fixed tip-pipetting station. The inoculum for each bacterial strain is standardized to approximately 5×10^5 CFU/mL by optical comparison to a 0.5 McFarland turbidity standard. The plates are inoculated with 10 μl/well of adjusted bacterial inoculum. The 96 well plates are covered and incubated at 35±2° C. for 24 hours in ambient air environment. Following incubation, plate wells are visually examined by Optical Density measurement for the presence of growth (turbidity). The lowest concentration of an antimicrobial agent at which no visible growth occurs is defined as the MIC.
(§2) All in vitro testing follows the guidelines described in the Approved Standards M7-A7 protocol, published by the Clinical Laboratory Standards Institute (CLSI).

H influenzae 33929 = experiment: MIC, H influenzae 33929; assay type: cell-based, Haemophilus influenzae; settings: for MIC: Haemophilus influenzae, 33929, Table 5; for H. influenzae 33929 (microbiological data): Table 6, related compounds of US 6878691
Method: as §1, §2

MRSA 33591 = experiment: MIC, MRSA 33591; assay type: cell-based, Staphylococcus aureus; settings: for MIC: Staphylococcus aureus, MRSA, Table 5; for MRSA 33591 (microbiological data): Table 6, related compounds of US 6878691
Method: as §1, §2

MRSA 7662 = experiment: MIC, MRSA 7662; assay type: cell-based; settings: Staphylococcus aureus, Table 5, read-out: MIC MRSA 7662
Method: as §1, §2

Row | SMILES | MIC (H influenzae 49247) [µg/mL] | MIC (H influenzae 33929) [µg/mL] | MIC (MRSA 33591) [µg/mL] | MIC (MRSA 7662) [µg/mL] | MRSA 33591 (microbiological data) (MRSA 33591) | H. influenzae 49247 (microbiological data) (H influenzae 49247) | H. influenzae 33929 (microbiological data) (H influenzae 33929)
1 | CC[C@H]1OC(=O)[C@H](C)C(=O)[C@H](C)[C@@H](O[C@@H]2O[C@H](C)C[C@H](N(C)C)[C@H]2O)[C@@]2(C)C[C@@H](C)C(=O)[C@H](C)[C@@H](OC/C(=N\OCc3ccc(-c4nc(N)ns4)cn3)CO2)[C@]1(C)O [Compound 2] | 1 (≈ 1.2 µM) | 2 (≈ 2.4 µM) |  |  |  |  | 
2 | CCC(=O)/N=C1\[C@H](C)C[C@@]2(C)OC/C(=N/OCc3csc(-c4cccc(N)n4)n3)CO[C@H]([C@H]1C)[C@](C)(O)[C@@H](CC)OC(=O)[C@@](C)(F)C(=O)[C@H](C)[C@H]2O[C@@H]1O[C@H](C)C[C@H](N(C)C)[C@H]1O [Compound 3] | 1 (≈ 1.1 µM) | 4 (≈ 4.42 µM) | 2 (≈ 2.21 µM) | 1 (≈ 1.1 µM) |  |  | 
3 | CCC(=O)/N=C1\[C@H](C)C[C@@]2(C)OC/C(=N/OCc3coc(-c4cccc(N)n4)n3)CO[C@H]([C@H]1C)[C@](C)(O)[C@@H](CC)OC(=O)[C@@](C)(F)C(=O)[C@H](C)[C@H]2O[C@@H]1O[C@H](C)C[C@H](N(C)C)[C@H]1O [Compound 11] |  |  | 4 (≈ 4.5 µM) | 2 (≈ 2.25 µM) |  |  | 
4 | CCC1OC(=O)C(C)C(=O)C(C)C(OC2OC(C)CC(N(C)C)C2O)C2(C)CC(C)C(=NC(C)=O)C(C)C(OCC(=NOCc3ccc(-c4cccnc4)s3)CO2)C1(C)O (centres unmarked) [Example 66 in US 6878691] |  |  |  |  | >64 | 16 | 16
5 | CCC1OC(=O)C(C)C(=O)C(C)C(OC2OC(C)CC(N(C)C)C2O)C2(C)CC(C)C(=NC(C)=O)C(C)C(OCC(=NOCc3cc(-c4cccnc4)no3)CO2)C1(C)O (centres unmarked) [Example 69 in US 6878691] |  |  |  |  | >64 | 16 | 16
6 | CCC1OC(=O)C(C)C(=O)C(C)C(OC2OC(C)CC(N(C)C)C2O)C2(C)CC(C)C(=NC(C)=O)C(C)C(OCC(=NOCc3ccc(-c4csnn4)cc3)CO2)C1(C)O (centres unmarked) [Example 72 in US 6878691] |  |  |  |  | >64 | 8 | 8
7 | CCC1OC(=O)C(C)C(=O)C(C)C(OC2OC(C)CC(N(C)C)C2O)C2(C)CC(C)C(=NC(C)=O)C(C)C(OCC(=NOCc3ccc(-n4cncn4)cc3)CO2)C1(C)O (centres unmarked) [Example 91 in US 6878691] |  |  |  |  | >64 | 8 | 16
8 | CCC1OC(=O)C(C)C(=O)C(C)C(OC2OC(C)CC(N(C)C)C2O)C2(C)CC(C)C(=NC(C)=O)C(C)C(OCC(=NOCc3noc(-c4ccccc4)n3)CO2)C1(C)O (centres unmarked) [Example 106 in US 6878691] |  |  |  |  | >64 | 8 | 8
9 | CCC1OC(=O)C(C)C(=O)C(C)C(OC2OC(C)CC(N(C)C)C2O)C2(C)CC(C)C(=NC(C)=O)C(C)C(OCC(=NOCc3ccc(-c4ccccn4)s3)CO2)C1(C)O (centres unmarked) [Example 115 in US 6878691] |  |  |  |  | >64 | 16 | 16
10 | CCC1OC(=O)C(C)(F)C(=O)C(C)C(OC2OC(C)CC(N(C)C)C2O)C2(C)CC(C)C(=NC(C)=O)C(C)C(OCC(=NOCc3ccc(-c4ncccn4)s3)CO2)C1(C)O (centres unmarked) [Example 140 in US 6878691] |  |  |  |  | 16 | 8 | 8
11 | CCC1OC(=O)C(C)(F)C(=O)C(C)C(OC2OC(C)CC(N(C)C)C2O)C2(C)CC(C)C(=NC(C)=O)C(C)C(OCC(=NOCc3ccc(-c4cnccn4)s3)CO2)C1(C)O (centres unmarked) [Example 141 in US 6878691] |  |  |  |  | 32 | 8 | 8
12 | CCC1OC(=O)C(C)(F)C(=O)C(C)C(OC2OC(C)CC(N(C)C)C2O)C2(C)CC(C)C(=NC(C)=O)C(C)C(OCC(=NOCc3ccc(-c4cccc(N)n4)s3)CO2)C1(C)O (centres unmarked) [Example 173 in US 6878691] |  |  |  |  | 4 | 4 | 4
13 | CCC1OC(=O)C(C)C(=O)C(C)C(OC2OC(C)CC(N(C)C)C2O)C2(C)CC(C)C(=NC(C)=O)C(C)C(OCC(=NOCc3ccc(-c4ncccn4)cc3)CO2)C1(C)O (centres unmarked) [Example 193 in US 6878691] |  |  |  |  | 64 | 8 | 8
14 | CCNC(=O)c1cccc(-c2cc(CON=C3COC4C(C)C(=NC(C)=O)C(C)CC(C)(OC3)C(OC3OC(C)CC(N(C)C)C3O)C(C)C(=O)C(C)C(=O)OC(CC)C4(C)O)on2)n1 (centres unmarked) [Example 195 in US 6878691] |  |  |  |  | >64 | 32 | 32
15 | CCC1OC(=O)C(C)C(=O)C(C)C(OC2OC(C)CC(N(C)C)C2O)C2(C)CC(C)C(=NC(C)=O)C(C)C(OCC(=NOCc3ccc(-c4cccs4)nc3)CO2)C1(C)O (centres unmarked) [Example 205 in US 6878691] |  |  |  |  | >64 | 8 | 4
16 | CCC1OC(=O)C(C)C(=O)C(C)C(OC2OC(C)CC(N(C)C)C2O)C2(C)CC(C)C(=NC(C)=O)C(C)C(OCC(=NOCc3ccc(-c4nccs4)nc3)CO2)C1(C)O (centres unmarked) [Example 212 in US 6878691] |  |  |  |  | 64 | 8 | 4
17 | CCC1OC(=O)C(C)(F)C(=O)C(C)C(OC2OC(C)CC(N(C)C)C2O)C2(C)CC(C)C(=NC(C)=O)C(C)C(OCC(=NOCc3ccc(-n4cccn4)nc3)CO2)C1(C)O (centres unmarked) [Example 214 in US 6878691] |  |  |  |  | 64 | 8 | 4
18 | CCC1OC(=O)C(C)(F)C(=O)C(C)C(OC2OC(C)CC(N(C)C)C2O)C2(C)CC(C)C(=NC(C)=O)C(C)C(OCC(=NOCc3ccc(-c4csnn4)cc3)CO2)C1(C)O (centres unmarked) [Example 219 in US 6878691] |  |  |  |  | 32 | 4 | 4
19 | CCC1OC(=O)C(C)C(=O)C(C)C(OC2OC(C)CC(N(C)C)C2O)C2(C)CC(C)C(=NC(C)=O)C(C)C(OCC(=NOCc3ccc(-c4cccc(N)n4)nc3)CO2)C1(C)O (centres unmarked) [Example 227 in US 6878691] |  |  |  |  | 32 | 4 | 4
20 | CCC1OC(=O)C(C)C(=O)C(C)C(OC2OC(C)CC(N(C)C)C2O)C2(C)CC(C)C(=NC(C)=O)C(C)C(OCC(=NOCc3ccc(-c4nnc(N)s4)nc3)CO2)C1(C)O (centres unmarked) [Example 234 in US 6878691] |  |  |  |  | >64 | 4 | 4
21 | CCC1OC(=O)C(C)C(=O)C(C)C(OC2OC(C)CC(N(C)C)C2O)C2(C)CC(C)C(=NC(C)=O)C(C)C(OCC(=NOCc3cnc(-n4cccn4)c(F)c3)CO2)C1(C)O (centres unmarked) [Example 259 in US 6878691] |  |  |  |  | >64 | 4 | 8
